# Test results taken from US8871934B2, “Fluorene compound and pharmaceutical use thereof” (Japan Tobacco Inc., priority 2008, dated 2014).
# Read-outs that look alike come from different tables or passages of the source.
# Target: human PDHK2 (hPDHK2) (Homo sapiens (Human), UniProt Q15119)
# Experiment: Inhibitory action of PDHK activity in vitro (kinase reaction, residual PDH activity measured)
# Type: biochemical
# [1] = PDHK inhibitory activity, class symbol of IC50
# [2] = read-out: PDHK inhibitory activity IC50
# [3] = PDHK inhibitory activity (class symbol)
Structure (SMILES),IC50 [1],IC50 [2],IC50 [3],"IC50 (class symbol of IC50, read-out: PDHK inhibitory activity)"
CNC(=O)COc1ccc2c(c1)C(O)(C(F)(F)F)c1ccccc1-2 (centres unmarked) [compound 289],0.1 to 1 µM,0.641 µM,–,–
"Cn1cc(-c2cc(OCC(N)=O)cc3c2-c2ccccc2C3(O)C(F)(F)F)cn1 (single isomer, unassigned) [compound 467]",< 0.1 µM,0.018 µM,–,–
O=C(COc1cc(-c2cnn(CCO)c2)c2c(c1)C(O)(C(F)(F)F)c1ccccc1-2)N1CCC1 (centres unmarked) [compound 496],< 0.1 µM,0.023 µM,–,–
"CC(C)=Cc1cc(-c2cnn(C(CO)CO)c2)c2c(c1)C(O)(C(F)(F)F)c1ccccc1-2 (single isomer, unassigned) [compound 664]",–,0.015 µM,< 0.1 µM,–
Cn1cc(-c2cc(CCO)c3c(c2)C(O)(C(F)(F)F)c2ccccc2-3)cn1 (centres unmarked) [compound 643],–,0.184 µM,0.1 to 1 µM,–
NC(=O)COc1ccc2c(c1)C(O)(C(F)(F)F)c1ccccc1-2 (centres unmarked) [compound 288],0.1 to 1 µM,0.635 µM,–,–
"Cc1cc(-c2cnn(CC(C)(C)C(=O)O)c2)c2c(c1)C(O)(C(F)(F)F)c1ccccc1-2 (single isomer, unassigned) [compound 575]",< 0.1 µM,0.036 µM,–,–
CC(C)n1cc(-c2cccc3c2-c2ccccc2C3(O)C(F)(F)F)cn1 (centres unmarked) [compound 465],< 0.1 µM,0.061 µM,–,–
"COC(=O)COc1cc(Br)c2c(c1)C(O)(C(F)(F)F)c1ccccc1-2 (single isomer, unassigned) [compound 452]",> 1 µM,2.72 µM,–,–
CN(C)C(=O)c1ccc2c(c1)C(O)(C(F)(F)F)c1ccccc1-2 (centres unmarked) [compound 31],> 1 µM,1.35 µM,–,–
CN(C)C(=O)c1ccc(-c2ccc3c(c2)C(O)(C(F)(F)F)c2ccccc2-3)cc1 (centres unmarked) [compound 192],0.1 to 1 µM,0.182 µM,–,–
CC1CCCN1C(=O)c1ccc2c(c1)C(O)(C(F)(F)F)c1ccccc1-2 (centres unmarked) [compound 77],> 1 µM,2.5 µM,–,–
O=C(NCCCCO)c1ccc2c(c1)C(O)(C(F)(F)F)c1ccccc1-2 (centres unmarked) [compound 312],> 1 µM,1.82 µM,–,–
O=C1CCCCN1CCCOc1ccc2c(c1)C(O)(C(F)(F)F)c1ccccc1-2 (centres unmarked) [compound 401],0.1 to 1 µM,0.554 µM,–,–
CCc1cc(C(N)=O)c2c(c1)C(O)(C(F)(F)F)c1ccccc1-2 (centres unmarked) [compound 633],–,0.56 µM,0.1 to 1 µM,–
CC(C)C(=O)N1CCN(c2ccc3c(c2)C(O)(C(F)(F)F)c2ccccc2-3)CC1 (centres unmarked) [compound 208],0.1 to 1 µM,0.677 µM,–,–
CN(C)C(=O)CCCCOc1ccc2c(c1)C(O)(C(F)(F)F)c1ccccc1-2 (centres unmarked) [compound 299],0.1 to 1 µM,0.235 µM,–,–
O=C(COc1ccc2c(c1)C(O)(C(F)(F)F)c1ccccc1-2)NCCO (centres unmarked) [compound 365],> 1 µM,1.33 µM,–,–
CC(C)Cn1cc(-c2cccc3c2-c2ccccc2C3(O)C(F)(F)F)cn1 (centres unmarked) [compound 386],< 0.1 µM,0.089 µM,–,–
"COc1cc(-c2cnn(C(C)(C)CC(=O)O)c2)c2c(c1)C(O)(C(F)(F)F)c1ccccc1-2 (single isomer, unassigned) [compound 614]",–,0.037 µM,< 0.1 µM,–
O=C(O)c1ccc2c(c1)-c1ccccc1C2(O)C(F)(F)F (centres unmarked) [compound 41],> 1 µM,68.6 µM,–,–
OC1(C(F)(F)F)c2ccccc2-c2ccc(F)cc21 (centres unmarked) [compound 4],> 1 µM,2.29 µM,–,–
CNC(=O)Cn1cc(-c2cc(Cl)cc3c2-c2ccccc2C3(O)C(F)(F)F)cn1 (centres unmarked) [compound 513],< 0.1 µM,0.032 µM,–,–

Structure (SMILES),IC50 [1],IC50 [2],IC50 [3],"IC50 (class symbol of IC50, read-out: PDHK inhibitory activity)"
Nc1ccc2c(c1)-c1ccccc1C2(O)C(F)(F)F (centres unmarked) [compound 26],> 1 µM,17.6 µM,–,–
"CCn1cc(-c2cc(C(N)=O)c3c(c2)C(O)(C(F)(F)F)c2ccccc2-3)cn1 (single isomer, unassigned; (-)) [compound 630, (−)-2-(1-ethyl-1H-pyrazol-4-yl)-9-hydroxy-9-trifluoromethyl-9H-fluorene-4-carboxylic acid amide]",–,0.02 µM,< 0.1 µM,–
CCOc1ccc2c(c1)C(O)(C(F)(F)F)c1ccccc1-2 (centres unmarked) [compound 89],> 1 µM,2.15 µM,–,–
OCCOc1ccc2c(c1)C(O)(C(F)(F)F)c1ccccc1-2 (centres unmarked) [compound 292],> 1 µM,2.57 µM,–,–
"NC(=O)Cn1cc(-c2cc(OCCC34CC5CC(CC(O)(C5)C3)C4)cc3c2-c2ccccc2C3(O)C(F)(F)F)cn1 (single isomer, unassigned) [compound 541]",< 0.1 µM,0.015 µM,–,–
CN(C)C(=O)CCn1cc(-c2cccc3c2-c2ccccc2C3(O)C(F)(F)F)cn1 (centres unmarked) [compound 488],< 0.1 µM,0.052 µM,–,–
CN(C)C(=O)C1CN(C(=O)c2cc(Cl)c3c(c2)C(O)(C(F)(F)F)c2ccccc2-3)C1 (centres unmarked) [compound 329],< 0.1 µM,0.066 µM,–,–
O=C(O)c1ccccc1-c1ccc2c(c1)C(O)(C(F)(F)F)c1ccccc1-2 (centres unmarked) [compound 180],> 1 µM,> 10 µM,–,–
Cc1ccc(-c2ccc3c(c2)C(O)(C(F)(F)F)c2ccccc2-3)cc1 (centres unmarked) [compound 181],> 1 µM,1.51 µM,–,–
Cn1cc(-c2cc(C(C)(C)O)c3c(c2)C(O)(C(F)(F)F)c2ccccc2-3)cn1 (centres unmarked) [compound 591],–,> 1 µM,–,> 1 µM
NC(=O)Cc1ccc2c(c1)C(O)(C(F)(F)F)c1ccccc1-2 (centres unmarked) [compound 403],> 1 µM,> 10 µM,–,–
COC(=O)c1cccc2c1-c1cc(F)ccc1C2(O)C(F)(F)F (centres unmarked) [compound 220],0.1 to 1 µM,0.488 µM,–,–
CC(C)(C)C(=O)N1CCN(c2cc(Cl)c3c(c2)C(O)(C(F)(F)F)c2ccccc2-3)CC1 (centres unmarked) [compound 271],< 0.1 µM,0.056 µM,–,–
CC(=O)N(CCOc1ccc2c(c1)C(O)(C(F)(F)F)c1ccccc1-2)CCC(=O)O (centres unmarked) [compound 443],> 1 µM,1.15 µM,–,–
CC(C)Cc1cc(-c2cnn(CCO)c2)c2c(c1)C(O)(C(F)(F)F)c1ccccc1-2 (centres unmarked) [compound 631],–,0.062 µM,< 0.1 µM,–
NC(=O)Cn1cc(-c2cccc3c2-c2ccccc2C3(O)C(F)(F)F)cn1 (centres unmarked) [compound 493],< 0.1 µM,0.039 µM,–,–
NC(=O)C1CCN(c2ccc3c(c2)C(O)(C(F)(F)F)c2ccccc2-3)CC1 (centres unmarked) [compound 230],> 1 µM,3.71 µM,–,–
CC(=O)N(C)CCOc1ccc2c(c1)C(O)(C(F)(F)F)c1ccccc1-2 (centres unmarked) [compound 326],0.1 to 1 µM,0.303 µM,–,–
OC1(C(F)(F)F)c2ccccc2-c2ccc(-c3cccc(Cl)c3)cc21 (centres unmarked) [compound 132],0.1 to 1 µM,0.694 µM,–,–
"CC(C)(Cn1cc(-c2cc(F)cc3c2-c2ccccc2C3(O)C(F)(F)F)cn1)C(=O)O (single isomer, unassigned) [compound 607]",–,0.045 µM,< 0.1 µM,–
Cc1ncc(-c2cccc3c2-c2ccccc2C3(O)C(F)(F)F)o1 (centres unmarked) [compound 275],0.1 to 1 µM,0.278 µM,–,–
CC(=O)N(C)CCOc1cc(-c2cnn(C)c2)c2c(c1)C(O)(C(F)(F)F)c1ccccc1-2 (centres unmarked) [compound 423],< 0.1 µM,0.021 µM,–,–
NC(=O)c1cc(OCCN2CCCC2=O)cc2c1-c1ccccc1C2(O)C(F)(F)F (centres unmarked) [compound 502],< 0.1 µM,0.048 µM,–,–
